Measurements reported in US10765764B2, “Probes for imaging huntingtin protein” (CHDI Foundation, Inc., priority 2015, dated 2020).

Target: T1, Q46 protein aggregates (Homo sapiens, UniProt P42858)
T1 construct: fused on or other part: An N-terminal GST tag, cleaved off with thrombin before the assay to trigger aggregation
Assay: Q46 Radioligand Binding Assay (RBA), displacement of [^3H3]MK-3328
Details: 10 nM [^3H3]MK-3328, 5 μM Q46 protein aggregates
Description: For radioligand binding assays (RBA) GST-Q46 protein was generated based on a previous publication (Scherzinger et al. Cell, Vol. 90, 549-558, Aug. 8, 1997). For experiments 33 μM GST-Q46 was incubated with 150 μg/mL thrombin in assay buffer (150 mM NaCl, 50 mM Tris pH 8.0) and 2 mM CaCl2 for 16 hours at 37° C. Aggregated Q46 was pelleted by centrifugation for 5 minutes at 13,000 rpm in a bench top centrifuge and re-dissolved in the same volume of assay buffer. Test compounds were prepared by titration in DMSO at 11 concentrations from 33 μM to 1 nM. For the RBA, Q46 protein aggregates and test compounds were pre-incubated in assay buffer for 20 minutes at room temperature, in 140 μL/well in a 96-well plate (pp, round bottom). Then, ligand was added in 10 μL/well and incubated for 60 minutes at 37° C. Final assay concentrations were 1 μM to 30 pM test compound, 5 μM Q46 protein (equivalent monomer concentration) and 10 nM ligand [^3H3]MK-3328 (Harrision et al., ACS Med. Chem. Lett., 2 (2011), pp 498-502). Samples were transferred onto GF/B filter plates and washed 2× with 200 μL PBS using a Filtermate Harvester. After drying filter plates for 1 hour at 37° C., the back of the plates was sealed with foil and 30 μl/well scintillation fluid (Packard MicroScint 40) was added, incubated for incubated for 15 minutes in the dark and counted in a TopCount reader. For analysis, replicate data from independent assay plates were normalized towards 0% and 100% inhibition using control wells of vehicle (0% inhibition) and 3 μM unlabelled MK-3328 (100% inhibition). IC50 values were determined with a sigmoidal inhibition model with four variables (top, bottom, slope, IC50) in a global fit using the normalized replicate data.

T1 sequence (P42858 with tags, fused parts or gaps with the stated changes, form open): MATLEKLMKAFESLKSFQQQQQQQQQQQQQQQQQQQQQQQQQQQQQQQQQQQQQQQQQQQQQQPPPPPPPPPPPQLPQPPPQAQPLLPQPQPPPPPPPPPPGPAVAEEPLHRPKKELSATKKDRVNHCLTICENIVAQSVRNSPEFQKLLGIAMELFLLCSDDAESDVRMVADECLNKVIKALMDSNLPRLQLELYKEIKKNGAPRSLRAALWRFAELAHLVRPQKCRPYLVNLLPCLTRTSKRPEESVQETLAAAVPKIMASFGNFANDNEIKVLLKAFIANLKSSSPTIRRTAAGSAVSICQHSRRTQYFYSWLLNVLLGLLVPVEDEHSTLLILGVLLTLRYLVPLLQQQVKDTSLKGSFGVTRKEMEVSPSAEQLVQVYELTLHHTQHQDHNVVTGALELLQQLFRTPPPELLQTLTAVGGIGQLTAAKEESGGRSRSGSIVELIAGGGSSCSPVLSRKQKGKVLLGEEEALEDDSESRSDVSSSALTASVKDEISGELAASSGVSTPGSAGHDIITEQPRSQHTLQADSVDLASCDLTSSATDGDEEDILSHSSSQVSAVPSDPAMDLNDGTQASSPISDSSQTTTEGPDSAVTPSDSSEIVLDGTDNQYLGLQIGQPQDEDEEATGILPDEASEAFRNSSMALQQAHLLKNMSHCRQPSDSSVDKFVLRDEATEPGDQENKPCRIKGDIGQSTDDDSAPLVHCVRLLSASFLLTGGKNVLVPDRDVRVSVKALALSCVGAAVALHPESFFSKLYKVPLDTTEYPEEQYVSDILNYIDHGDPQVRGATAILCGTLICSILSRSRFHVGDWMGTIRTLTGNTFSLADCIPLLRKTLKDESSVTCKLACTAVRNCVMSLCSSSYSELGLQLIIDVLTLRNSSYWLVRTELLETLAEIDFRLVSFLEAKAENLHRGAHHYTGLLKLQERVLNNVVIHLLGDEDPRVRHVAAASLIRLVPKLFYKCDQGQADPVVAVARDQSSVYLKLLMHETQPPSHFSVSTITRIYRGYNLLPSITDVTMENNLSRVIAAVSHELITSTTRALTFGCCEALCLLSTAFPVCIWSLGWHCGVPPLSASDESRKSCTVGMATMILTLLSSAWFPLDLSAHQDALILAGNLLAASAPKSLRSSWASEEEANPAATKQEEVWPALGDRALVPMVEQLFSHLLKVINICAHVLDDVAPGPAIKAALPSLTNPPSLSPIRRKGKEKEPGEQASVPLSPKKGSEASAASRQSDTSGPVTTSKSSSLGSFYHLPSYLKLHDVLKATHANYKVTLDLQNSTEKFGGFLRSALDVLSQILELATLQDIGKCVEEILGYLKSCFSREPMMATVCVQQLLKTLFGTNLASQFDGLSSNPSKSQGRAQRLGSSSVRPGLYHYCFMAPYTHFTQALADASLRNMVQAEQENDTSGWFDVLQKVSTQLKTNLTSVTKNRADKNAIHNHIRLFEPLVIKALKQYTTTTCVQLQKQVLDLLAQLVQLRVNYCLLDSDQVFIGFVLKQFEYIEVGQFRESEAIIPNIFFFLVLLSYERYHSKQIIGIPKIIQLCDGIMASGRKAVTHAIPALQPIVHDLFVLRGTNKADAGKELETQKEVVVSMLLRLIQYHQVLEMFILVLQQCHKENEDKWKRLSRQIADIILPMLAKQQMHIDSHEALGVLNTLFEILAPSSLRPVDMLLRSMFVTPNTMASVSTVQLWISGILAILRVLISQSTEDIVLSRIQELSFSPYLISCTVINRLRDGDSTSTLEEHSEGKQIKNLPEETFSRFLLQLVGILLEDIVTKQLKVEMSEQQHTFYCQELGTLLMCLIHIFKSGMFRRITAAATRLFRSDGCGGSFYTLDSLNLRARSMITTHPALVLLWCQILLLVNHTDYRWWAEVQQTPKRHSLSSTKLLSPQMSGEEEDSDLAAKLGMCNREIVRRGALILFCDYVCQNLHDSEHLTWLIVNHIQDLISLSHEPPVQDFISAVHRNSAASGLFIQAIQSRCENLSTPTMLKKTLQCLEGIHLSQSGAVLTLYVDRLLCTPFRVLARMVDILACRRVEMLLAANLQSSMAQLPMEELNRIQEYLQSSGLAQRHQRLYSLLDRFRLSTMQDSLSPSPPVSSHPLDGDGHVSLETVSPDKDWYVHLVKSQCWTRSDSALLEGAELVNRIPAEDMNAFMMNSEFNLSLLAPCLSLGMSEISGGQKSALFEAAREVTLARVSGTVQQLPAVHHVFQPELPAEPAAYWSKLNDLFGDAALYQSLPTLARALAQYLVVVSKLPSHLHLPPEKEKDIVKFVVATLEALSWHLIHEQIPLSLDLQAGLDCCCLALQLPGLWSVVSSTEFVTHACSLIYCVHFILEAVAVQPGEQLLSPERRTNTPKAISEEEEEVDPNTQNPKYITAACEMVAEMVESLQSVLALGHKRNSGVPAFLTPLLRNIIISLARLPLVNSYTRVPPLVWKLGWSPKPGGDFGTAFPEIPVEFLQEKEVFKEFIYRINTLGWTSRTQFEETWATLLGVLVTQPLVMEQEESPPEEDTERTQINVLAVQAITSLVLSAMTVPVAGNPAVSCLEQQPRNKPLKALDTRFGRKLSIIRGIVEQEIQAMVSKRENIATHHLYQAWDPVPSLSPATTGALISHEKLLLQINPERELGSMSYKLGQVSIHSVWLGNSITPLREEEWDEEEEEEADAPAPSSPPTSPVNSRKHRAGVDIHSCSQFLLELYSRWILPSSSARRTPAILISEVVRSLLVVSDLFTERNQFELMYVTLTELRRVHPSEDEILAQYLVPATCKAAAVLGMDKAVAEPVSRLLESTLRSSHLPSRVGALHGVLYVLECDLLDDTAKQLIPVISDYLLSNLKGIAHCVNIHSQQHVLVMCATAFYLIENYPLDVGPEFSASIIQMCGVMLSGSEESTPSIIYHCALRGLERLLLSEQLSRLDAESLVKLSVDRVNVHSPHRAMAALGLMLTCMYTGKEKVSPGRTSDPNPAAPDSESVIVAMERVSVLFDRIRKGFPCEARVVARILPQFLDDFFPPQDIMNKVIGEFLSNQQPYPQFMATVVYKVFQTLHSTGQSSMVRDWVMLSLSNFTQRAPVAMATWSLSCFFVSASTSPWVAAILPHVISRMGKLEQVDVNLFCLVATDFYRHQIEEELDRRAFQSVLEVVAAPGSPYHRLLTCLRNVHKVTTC

Compound	IC50
O=C(Nc1cccnc1)c1ccn2c(n1)nc1ccccc12 [N-(pyridin-3-yl)-1,8,10-triazatricyclo[7.4.0.0^2,7]trideca-2(7),3,5,8,10,12-hexaene-11-carboxamide]	> 500 nM
COc1cncc(NC(=O)c2cn3c(n2)sc2cc(CN(C)C)ccc23)c1 [10-[(dimethylamino)methyl]-N-(5-methoxypyridin-3-yl)-7-thia-2,5-diazatricyclo[6.4.0.0^2,6]dodeca-1(12),3,5,8,10-pentaene-4-carboxamide]	100 to 500 nM
COc1ccc2c(c1)sc1nc(C(=O)N3CCc4ccncc43)cn12 [10-methoxy-4-{1H,2H,3H-pyrrolo[2,3-c]pyridine-1-carbonyl}-7-thia-2,5-diazatricyclo[6.4.0.0^2,6]dodeca-1(12),3,5,8,10-pentaene]	> 500 nM
COc1ccc2c(c1)nc1sc(C(=O)Nc3ccc(=O)n(C)n3)cn12 [10-methoxy-N-(1-methyl-6-oxo-1,6-dihydropyridazin-3-yl)-5-thia-2,7-diazatricyclo[6.4.0.0^2,6]dodeca-1(12),3,6,8,10-pentaene-4-carboxamide]	< 100 nM
COc1cncc(NC(=O)c2ccn3c(n2)nc2ccccc23)c1 [N-(5-methoxypyridin-3-yl)-1,8,10-triazatricyclo[7.4.0.0^2,7]trideca-2(7),3,5,8,10,12-hexaene-11-carboxamide]	< 100 nM
COc1ccc2c(c1)nc1nc(C(=O)N3Cc4cnn(C)c4C3)ccn12 [5-methoxy-11-{1-methyl-1H,4H,5H,6H-pyrrolo[3,4-c]pyrazole-5-carbonyl}-1,8,10-triazatricyclo[7.4.0.0^2,7]trideca-2(7),3,5,8,10,12-hexaene]	< 100 nM
COc1cncc(NC(=O)c2cn3c(n2)sc2nc(OC)ccc23)c1 [10-methoxy-N-(5-methoxypyridin-3-yl)-7-thia-2,5,9-triazatricyclo[6.4.0.0^2,6]dodeca-1(12),3,5,8,10-pentaene-4-carboxamide]	< 100 nM
CNCc1cccc(NC(=O)c2cn3c(n2)sc2cc(OC)ccc23)c1 [10-methoxy-N-{3-[(methylamino)methyl]phenyl}-7-thia-2,5-diazatricyclo[6.4.0.0^2,6]dodeca-1(8),3,5,9,11-pentaene-4-carboxamide]	< 100 nM
Cn1cc(NC(=O)c2ccn3c(n2)nc2ccccc23)cnc1=O [N-(1-methyl-2-oxo-1,2-dihydropyrimidin-5-yl)-1,8,10-triazatricyclo[7.4.0.0^2,7]trideca-2(7),3,5,8,10,12-hexaene-11-carboxamide]	< 100 nM
O=C(Nc1cccnc1)c1cn2c(n1)sc1cc(O)ccc12 [10-hydroxy-N-(pyridin-3-yl)-7-thia-2,5-diazatricyclo[6.4.0.0^2,6]dodeca-1(12),3,5,8,10-pentaene-4-carboxamide]	< 100 nM
COc1ccc2c(c1)sc1nc(C(=O)Nc3cnc(C)nc3)cn12 [10-methoxy-N-(2-methylpyrimidin-5-yl)-7-thia-2,5-diazatricyclo[6.4.0.0^2,6]dodeca-1(12),3,5,8,10-pentaene-4-carboxamide]	< 100 nM
COc1cncc(NC(=O)c2cn3c(n2)sc2cc(-c4ccccc4)ccc23)c1 [N-(5-methoxypyridin-3-yl)-10-phenyl-7-thia-2,5-diazatricyclo[6.4.0.0^2,6]dodeca-1(12),3,5,8,10-pentaene-4-carboxamide]	< 100 nM
COc1ccc2c(c1)sc1nc(C(=O)Nc3ccncc3)cn12 [10-methoxy-N-(pyridin-4-yl)-7-thia-2,5-diazatricyclo[6.4.0.0^2,6]dodeca-1(12),3,5,8,10-pentaene-4-carboxamide]	< 100 nM
COc1cncc(NC(=O)c2cn3c(n2)sc2ccccc23)c1 [N-(5-methoxypyridin-3-yl)-7-thia-2,5-diazatricyclo[6.4.0.0^2,6]dodeca-1(12),3,5,8,10-pentaene-4-carboxamide]	< 100 nM
COCCNC(=O)c1cn2c(n1)sc1cc(OC)ccc12 [10-methoxy-N-(2-methoxyethyl)-7-thia-2,5-diazatricyclo[6.4.0.0^2,6]dodeca-1(12),3,5,8,10-pentaene-4-carboxamide]	100 to 500 nM
COc1cncc(NC(=O)c2cn3c(n2)sc2ncc(Br)cc23)c1 [11-bromo-N-(5-methoxypyridin-3-yl)-7-thia-2,5,9-triazatricyclo[6.4.0.0^2,6]dodeca-1(12),3,5,8,10-pentaene-4-carboxamide]	< 100 nM
COc1ccc2c(c1)sc1nc(C(=O)Nc3ccc(=O)[nH]n3)cn12 [10-methoxy-N-(6-oxo-1,6-dihydropyridazin-3-yl)-7-thia-2,5-diazatricyclo[6.4.0.0^2,6]dodeca-1(12),3,5,8,10-pentaene-4-carboxamide]	< 100 nM

Now from value to compound:

IC50	Compound
< 100 nM	COc1cncc(NC(=O)c2ccn3c(n2)nc2cc(-c4cncc(OC)c4)ccc23)c1 [N,5-bis(5-methoxypyridin-3-yl)-1,8,10-triazatricyclo[7.4.0.0^2,7]trideca-2(7),3,5,8,10,12-hexaene-11-carboxamide]
< 100 nM	COc1ccc2c(c1)sc1nc(C(=O)Nc3ccc4occc4c3)cn12 [N-(1-benzofuran-5-yl)-10-methoxy-7-thia-2,5-diazatricyclo[6.4.0.0^2,6]dodeca-1(12),3,5,8,10-pentaene-4-carboxamide]
< 100 nM	COc1ccc2c(c1)sc1nc(C(=O)Nc3cnccn3)cn12 [10-methoxy-N-(pyrazin-2-yl)-7-thia-2,5-diazatricyclo[6.4.0.0^2,6]dodeca-1(12),3,5,8,10-pentaene-4-carboxamide]
< 100 nM	COc1cncc(NC(=O)c2ccn3c(n2)nc2cc(OC)ccc23)c1 [5-methoxy-N-(5-methoxypyridin-3-yl)-1,8,10-triazatricyclo[7.4.0.0^2,7]trideca-2(7),3,5,8,10,12-hexaene-11-carboxamide]
< 100 nM	COc1ccc2c(c1)sc1nc(C(=O)Nc3ccc(F)nc3)cn12 [N-(6-fluoropyridin-3-yl)-10-methoxy-7-thia-2,5-diazatricyclo[6.4.0.0^2,6]dodeca-1(12),3,5,8,10-pentaene-4-carboxamide]
< 100 nM	Cn1nc(NC(=O)c2ccn3c(n2)nc2ccccc23)ccc1=O [N-(1-methyl-6-oxo-1,6-dihydropyridazin-3-yl)-1,8,10-triazatricyclo[7.4.0.0^2,7]trideca-2(7),3,5,8,10,12-hexaene-11-carboxamide]
< 100 nM	COc1ccc2c(c1)sc1nc(C(=O)Nc3ccc(=O)[nH]c3)cn12 [10-methoxy-N-(6-oxo-1,6-dihydropyridin-3-yl)-7-thia-2,5-diazatricyclo[6.4.0.0^2,6]dodeca-1(12),3,5,8,10-pentaene-4-carboxamide]
< 100 nM	COc1ccc2c(c1)sc1nc(C(=O)Nc3ccc(C)nc3)cn12 [10-methoxy-N-(6-methylpyridin-3-yl)-7-thia-2,5-diazatricyclo[6.4.0.0^2,6]dodeca-1(12),3,5,8,10-pentaene-4-carboxamide]
< 100 nM	COc1ccc(NC(=O)c2cn3c(n2)sc2cc(OC)ccc23)nc1 [10-methoxy-N-(5-methoxypyridin-2-yl)-7-thia-2,5-diazatricyclo[6.4.0.0^2,6]dodeca-1(12),3,5,8,10-pentaene-4-carboxamide]
< 100 nM	C=CCOc1ccc2c(c1)sc1nc(C(=O)Nc3ccc(=O)n(C)n3)cn12 [N-(1-methyl-6-oxo-1,6-dihydropyridazin-3-yl)-10-(prop-2-en-1-yloxy)-7-thia-2,5-diazatricyclo[6.4.0.0^2,6]dodeca-1(12),3,5,8,10-pentaene-4-carboxamide]
< 100 nM	COc1ccc(NC(=O)c2cn3c(n2)sc2cc(O)ccc23)cn1 [10-hydroxy-N-(6-methoxypyridin-3-yl)-7-thia-2,5-diazatricyclo[6.4.0.0^2,6]dodeca-1(12),3,5,8,10-pentaene-4-carboxamide]
< 100 nM	O=C(Nc1ccc(=O)[nH]n1)c1ccn2c(n1)nc1ccccc12 [N-(6-oxo-1,6-dihydropyridazin-3-yl)-1,8,10-triazatricyclo[7.4.0.0^2,7]trideca-2(7),3,5,8,10,12-hexaene-11-carboxamide]
< 100 nM	COc1ccc2c(c1)sc1nc(C(=O)Nc3ccc(-n4ccnc4)nc3)cn12 [N-[6-(1H-imidazol-1-yl)pyridin-3-yl]-10-methoxy-7-thia-2,5-diazatricyclo[6.4.0.0^2,6]dodeca-1(12),3,5,8,10-pentaene-4-carboxamide]
< 100 nM	COc1ccc2c(c1)nc1nc(C(=O)Nc3ccc(OC)nc3)ccn12 [5-methoxy-N-(6-methoxypyridin-3-yl)-1,8,10-triazatricyclo[7.4.0.0^2,7]trideca-2(7),3,5,8,10,12-hexaene-11-carboxamide]
< 100 nM	COc1ccc2c(c1)nc1nc(C(=O)Nc3cccnc3)ccn12 [5-methoxy-N-(pyridin-3-yl)-1,8,10-triazatricyclo[7.4.0.0^2,7]trideca-2(7),3,5,8,10,12-hexaene-11-carboxamide]
